Experimental data: patent US12384741B2, “Lipid nanoparticle compositions for delivering circular polynucleotides” (Orna Therapeutics, Inc., priority 2021, dated 2025)

Assays:
[1] = test system: T cells, myeloid cells, B cells, and NK cells; experiment: mOX40L expression in splenic immune cells (flow cytometry); format: in vivo, C57BL/6 mice; settings: LNP 50:10:38.5:1.5, IL:P 5.7, 1 mg/kg intravenously, 24 hours; vs Lipid 15 of Table 10f
Method: The ionizable lipid: helper lipid: cholesterol: PEG-lipid molar ratio of these LNPs was 50:10:38.5:1.5. Dialysis of the LNPs were performed using PBS. C57BL/6 female mice (6-8 weeks, n=4) were dosed at either LNP comprising Lipid 1 of Table 10e or the Lipid 15 of Table 10f at 1 mg/kg intravenously. At 24 hours, the spleen from the mice were collected for flow cytometry analysis. mOX40L transfection of Lipid 1 of Table 10e and Lipid 15 of Table 10f were compared in T cells, myeloid cells, B cells, and NK cells.

splenic T cells = experiment: mOX40L expression in splenic T cells; format: in vivo, C57BL/6 mice; settings: 1 mg/kg intravenously, 24 hours; IL:P 5.7, 50:10:38.5:1.5
Method: The ionizable lipid: helper lipid: cholesterol: PEG-lipid molar ratio of these LNPs was 50:10:38.5:1.5. C57BL/6 female mice (6-8 weeks, n=4) were dosed at 1 mg/kg intravenously. At 24 hours, the spleen from the mice were collected for flow cytometry analysis, tested for weight loss and measured for serum alanine aminotransferase (ALT) after blood collection. mOX40L expression was measured in splenic T cells.

## CCCCCCCCCCCCC(O)CN(CCCO)CCCCCCCC(=O)OC(CCCCCCCC)CCCCCCCC (centres unmarked) [Lipid 1 of Table 10e, heptadecan-9-yl 8-((3-hydroxypropyl)(2-hydroxytetradecyl)amino)octanoate]
[1]
  mOX40L transfection in splenic immune cells: comparable or higher levels of mOX40L transfection
Splenic T cells
  mOX40L expression in splenic T cells: resulted in expression of mOX40L in splenic T cells
